Here are results for 29 molecules from patent publication US10464947B2 (Incyte Corporation, priority 2013, dated 2019).

In the assay the test system is KMS.12.BM cells. Kind of assay: KMS.12.BM Cell Viability Assay (Example B1). In kind it is cell-based, human. The conditions noted are these: Homo sapiens, 72 h, 3 days, Cell Titer-GLO, read-out: KMS cellular IC50. In short, it runs like this: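 KMS.12.BM human myeloma cells, 5000 cells/well in RPMI with 10% FBS, exposed to a compound concentration range for 3 days. Viable cells measured by ATP-based Cell Titer-GLO luminescence after 10 min at room temperature.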
Background: Cellular ATP, detected with luciferase, serves as a proxy for viable cell number.

Where two headings read alike, the source gives them in different places.

By IC50 is commonly meant the concentration needed to halve the response being measured. `Cc1noc(C)c1-c1ccc2nc(N3CCC(C#N)CC3)n3c2c1OC[C@@H]3c1ccccn1` [Example 175, 1-[(4S)-7-(3,5-dimethylisoxazol-4-yl)-4-pyridin-2-yl-4,5-dihydroimidazo[1,5,4-de][1,4]benzoxazin-2-yl]piperidine-4-carbonitrile]: the IC50 was less than 1000 nM. Same read-out and setting: next, `Cc1noc(C)c1-c1ccc2nc(C3=CCNCC3)n3c2c1OC[C@@H]3c1ccccn1` [Example 104, (4S)-7-(3,5-dimethylisoxazol-4-yl)-4-pyridin-2-yl-2-(1,2,3,6-tetrahydropyridin-4-yl)-4,5-dihydroimidazo[1,5,4-de][1,4]benzoxazine]: less than 1000 nM; `Cc1noc(C)c1-c1cc(C(O)C(C)C)c2[nH]c(=O)n3c2c1OCC3c1ccccn1` (centres unmarked) [Example 264, 7-(3,5-dimethylisoxazol-4-yl)-9-(1-hydroxy-2-methylpropyl)-4-pyridin-2-yl-4,5-dihydroimidazo[1,5,4-de][1,4]benzoxazin-2(1H)-one]: less than 1000 nM; `Cc1noc(C)c1-c1ccc2nc(N3CC[C@@H](NC(=O)C4CCC4)C3)n3c2c1OC[C@@H]3c1ccccn1` [Example 210, N-{(3R)-1-[(4S)-7-(3,5-dimethylisoxazol-4-yl)-4-pyridin-2-yl-4,5-dihydroimidazo[1,5,4-de][1,4]benzoxazin-2-yl]pyrrolidin-3-yl}cyclobutanecarboxamide]: less than 1000 nM.

Take `Cc1noc(C)c1-c1ccc2nc(N3CC[C@@H](N(C)C)C3)n3c2c1OC[C@@H]3c1ccccn1` [Example 180A, (3R)-1-[(4S)-7-(3,5-dimethylisoxazol-4-yl)-4-pyridin-2-yl-4,5-dihydroimidazo[1,5,4-de][1,4]benzoxazin-2-yl]-N,N-dimethylpyrrolidin-3-amine]: the IC50 is less than 1000 nM. As for `Cc1noc(C)c1-c1ccc2[nH]c(=O)n3c2c1OCC3C1CCCO1` (single isomer, unassigned) [Example 18A, 7-(3,5-Dimethylisoxazol-4-yl)-4-(tetrahydrofuran-2-yl)-4,5-dihydroimidazo[1,5,4-de][1,4]benzoxazin-2(1H)-one], the IC50 is less than 1000 nM. The same measure, in the same setting: next, `Cc1noc(C)c1-c1ccc2nc(N3CC(NS(=O)(=O)C(C)C)C3)n3c2c1OC[C@@H]3c1ccccn1` [Example 239, N-{1-[(4S)-7-(3,5-dimethylisoxazol-4-yl)-4-pyridin-2-yl-4,5-dihydroimidazo[1,5,4-de][1,4]benzoxazin-2-yl]azetidin-3-yl}propane-2-sulfonamide]: less than 1000 nM. As for `Cc1noc(C)c1-c1ccc2nc(N3CCC(C)(O)C3)n3c2c1OC[C@@H]3c1ccccn1` (mixture of isomers) [Example 146C, 1-[(4S)-7-(3,5-Dimethylisoxazol-4-yl)-4-pyridin-2-yl-4,5-dihydroimidazo[1,5,4-de][1,4]benzoxazin-2-yl]-3-methylpyrrolidin-3-ol], the IC50 (KMS-12-BM) is less than 1000 nM.

In the case of `CCNc1nc2c(F)cc(-c3c(C)noc3C)c3c2n1C(c1cccnc1)CO3` (centres unmarked) [Example 158, 7-(3,5-Dimethylisoxazol-4-yl)-N-ethyl-9-fluoro-4-pyridin-3-yl-4,5-dihydroimidazo[1,5,4-de][1,4]benzoxazin-2-amine], the IC50 is less than 1000 nM. On the same count and under the same terms, next, `COCCN1CCN(c2nc3ccc(-c4c(C)noc4C)c4c3n2[C@@H](c2ccccn2)CO4)CC1` [Example 184, (4S)-7-(3,5-dimethylisoxazol-4-yl)-2-[4-(2-methoxyethyl)piperazin-1-yl]-4-pyridin-2-yl-4,5-dihydroimidazo[1,5,4-de][1,4]benzoxazine]: less than 1000 nM. Same read-out and setting: in the case of `CC(=O)NCc1ncccc1C1COc2c(-c3c(C)noc3C)ccc3[nH]c(=O)n1c23` (centres unmarked) [Example 131, N-({3-[7-(3,5-Dimethylisoxazol-4-yl)-2-oxo-1,2,4,5-tetrahydroimidazo[1,5,4-de][1,4]benzoxazin-4-yl]pyridin-2-yl}methyl)acetamide] it was less than 1000 nM. On the same count and under the same terms, in the case of `Cc1noc(C)c1-c1ccc2nc(N3CC[C@@H](N(C)S(C)(=O)=O)C3)n3c2c1OC[C@@H]3c1ccccn1` [Example 220, N-{(3R)-1-[(4S)-7-(3,5-dimethylisoxazol-4-yl)-4-pyridin-2-yl-4,5-dihydroimidazo[1,5,4-de][1,4]benzoxazin-2-yl]pyrrolidin-3-yl}-N-methylmethanesulfonamide] it was less than 1000 nM; in that of `CC(=O)N(C)[C@@H]1CCN(c2nc3ccc(-c4c(C)noc4C)c4c3n2[C@@H](c2ccccn2)CO4)C1` [Example 222, N-{(3R)-1-[(4S)-7-(3,5-dimethylisoxazol-4-yl)-4-pyridin-2-yl-4,5-dihydroimidazo[1,5,4-de][1,4]benzoxazin-2-yl]pyrrolidin-3-yl}-N-methylacetamide], less than 1000 nM; in that of `Cc1n[nH]cc1-c1ccc2[nH]c(=O)n3c2c1OCC3c1ccccc1` (centres unmarked) [Example 12, 7-(3-Methyl-1H-pyrazol-4-yl)-4-phenyl-4,5-dihydroimidazo[1,5,4-de][1,4]benzoxazin-2(1H)-one], 1000 to 10000 nM. Take `Cc1noc(C)c1-c1cc(CNc2ccccc2)c2[nH]c(=O)n3c2c1OCC3c1ccccn1` (centres unmarked) [Example 262, 9-(anilinomethyl)-7-(3,5-dimethylisoxazol-4-yl)-4-pyridin-2-yl-4,5-dihydroimidazo[1,5,4-de][1,4]benzoxazin-2(1H)-one]: the IC50 was less than 1000 nM. Still for that read-out and setting: next, `CCS(=O)(=O)N[C@@H]1CCN(c2nc3ccc(-c4c(C)noc4C)c4c3n2[C@@H](c2ccccn2)CO4)C1` [Example 214, N-{(3R)-1-[(4S)-7-(3,5-dimethylisoxazol-4-yl)-4-pyridin-2-yl-4,5-dihydroimidazo[1,5,4-de][1,4]benzoxazin-2-yl]pyrrolidin-3-yl}ethanesulfonamide]: less than 1000 nM; `Cc1noc(C)c1-c1ccc2nc(N3CCC(O)CC3)n3c2c1OC[C@@H]3c1ccccn1` [Example 169, 1-[(4S)-7-(3,5-dimethylisoxazol-4-yl)-4-pyridin-2-yl-4,5-dihydroimidazo[1,5,4-de][1,4]benzoxazin-2-yl]piperidin-4-ol]: less than 1000 nM; `Cc1noc(C)c1-c1ccc2nc(C3CCN(C(=O)OC(C)(C)C)CC3)n3c2c1OC[C@@H]3c1ccccn1` [Example 100, tert-Butyl 4-[(4S)-7-(3,5-dimethylisoxazol-4-yl)-4-pyridin-2-yl-4,5-dihydroimidazo[1,5,4-de][1,4]benzoxazin-2-yl]piperidine-1-carboxylate]: less than 1000 nM. The same measure, in the same setting: in the case of `CN[C@H]1CCN(c2nc3ccc(-c4c(C)noc4C)c4c3n2[C@@H](c2ccccn2)CO4)C1` [Example 181B, (3S)-1-[(4S)-7-(3,5-dimethylisoxazol-4-yl)-4-pyridin-2-yl-4,5-dihydroimidazo[1,5,4-de][1,4]benzoxazin-2-yl]-N-methylpyrrolidin-3-amine] it was less than 1000 nM; in that of `Cc1noc(C)c1-c1cc(-c2ccccc2)c2[nH]c(=O)n3c2c1OCC3c1ccccc1` (centres unmarked) [Example 43, 7-(3,5-Dimethylisoxazol-4-yl)-4,9-diphenyl-4,5-dihydroimidazo[1,5,4-de][1,4]benzoxazin-2(1H)-one], less than 1000 nM; in that of `Cc1noc(C)c1-c1ccc2nc(C(=O)N(C)C)n3c2c1OC[C@@H]3c1ccccn1` [Example 91, (4S)-7-(3,5-Dimethylisoxazol-4-yl)-N,N-dimethyl-4-pyridin-2-yl-4,5-dihydroimidazo[1,5,4-de][1,4]benzoxazine-2-carboxamide], less than 1000 nM.

On to `CCCS(=O)(=O)N[C@@H]1CCN(c2nc3ccc(-c4c(C)noc4C)c4c3n2[C@@H](c2ccccn2)CO4)C1` [Example 215, N-{(3R)-1-[(4S)-7-(3,5-dimethylisoxazol-4-yl)-4-pyridin-2-yl-4,5-dihydroimidazo[1,5,4-de][1,4]benzoxazin-2-yl]pyrrolidin-3-yl}propane-1-sulfonamide], for which the IC50 is less than 1000 nM. As to `Cc1noc(C)c1-c1ccc2[nH]c(=O)n3c2c1OCC3c1ccc(F)cn1` (centres unmarked) [Example 19, 7-(3,5-Dimethylisoxazol-4-yl)-4-(5-fluoropyridin-2-yl)-4,5-dihydroimidazo[1,5,4-de][1,4]benzoxazin-2(1H)-one], the IC50 is less than 1000 nM. The same measure, in the same setting: in the case of `CC(=O)NC1CN(c2nc3ccc(-c4c(C)noc4C)c4c3n2[C@@H](c2ccccn2)CO4)C1` [Example 231, N-{1-[(4S)-7-(3,5-dimethylisoxazol-4-yl)-4-pyridin-2-yl-4,5-dihydroimidazo[1,5,4-de][1,4]benzoxazin-2-yl]azetidin-3-yl}acetamide] it was less than 1000 nM; in that of `Cc1noc(C)c1-c1ccc2nc(N3CC(NC(=O)C4CC4)C3)n3c2c1OC[C@@H]3c1ccccn1` [Example 235, N-{1-[(4S)-7-(3,5-dimethylisoxazol-4-yl)-4-pyridin-2-yl-4,5-dihydroimidazo[1,5,4-de][1,4]benzoxazin-2-yl]azetidin-3-yl}cyclopropanecarboxamide], less than 1000 nM; in that of `Cc1noc(C)c1-c1cc(Br)c2[nH]c(=O)n3c2c1OCC3c1ccccn1` (single isomer, unassigned) [Example 267B, 9-bromo-7-(3,5-dimethylisoxazol-4-yl)-4-pyridin-2-yl-4,5-dihydroimidazo[1,5,4-de][1,4]benzoxazin-2(1H)-one], less than 1000 nM. Regarding `Cc1noc(C)c1-c1ccc2nc(N3CC(NC(=O)C4CCC4)C3)n3c2c1OC[C@@H]3c1ccccn1` [Example 236, N-{1-[(4S)-7-(3,5-dimethylisoxazol-4-yl)-4-pyridin-2-yl-4,5-dihydroimidazo[1,5,4-de][1,4]benzoxazin-2-yl]azetidin-3-yl}cyclobutanecarboxamide], the IC50 is less than 1000 nM. On the same count and under the same terms, next, `CCN1CCN(c2nc3ccc(-c4c(C)noc4C)c4c3n2[C@@H](c2ccccn2)CO4)CC1` [Example 192, (4S)-7-(3,5-dimethylisoxazol-4-yl)-2-(4-ethylpiperazin-1-yl)-4-pyridin-2-yl-4,5-dihydroimidazo[1,5,4-de][1,4]benzoxazine]: less than 1000 nM; `Cc1noc(C)c1-c1ccc2nc(C(C)O)n3c2c1OC[C@@H]3c1ccccn1` (stereo partly drawn) [Example 90, 1-[(4S)-7-(3,5-Dimethylisoxazol-4-yl)-4-pyridin-2-yl-4,5-dihydroimidazo[1,5,4-de][1,4]benzoxazin-2-yl]ethanol]: less than 1000 nM.
